Biological target: T1, RIG-I (Homo sapiens, UniProt O95786)
T1 construct: HEK293 cells overexpressing either the full length RIG-I; host or cells: HEK293; HCT116 also for the qRT-PCR validation
T1 sequence (O95786 1-925): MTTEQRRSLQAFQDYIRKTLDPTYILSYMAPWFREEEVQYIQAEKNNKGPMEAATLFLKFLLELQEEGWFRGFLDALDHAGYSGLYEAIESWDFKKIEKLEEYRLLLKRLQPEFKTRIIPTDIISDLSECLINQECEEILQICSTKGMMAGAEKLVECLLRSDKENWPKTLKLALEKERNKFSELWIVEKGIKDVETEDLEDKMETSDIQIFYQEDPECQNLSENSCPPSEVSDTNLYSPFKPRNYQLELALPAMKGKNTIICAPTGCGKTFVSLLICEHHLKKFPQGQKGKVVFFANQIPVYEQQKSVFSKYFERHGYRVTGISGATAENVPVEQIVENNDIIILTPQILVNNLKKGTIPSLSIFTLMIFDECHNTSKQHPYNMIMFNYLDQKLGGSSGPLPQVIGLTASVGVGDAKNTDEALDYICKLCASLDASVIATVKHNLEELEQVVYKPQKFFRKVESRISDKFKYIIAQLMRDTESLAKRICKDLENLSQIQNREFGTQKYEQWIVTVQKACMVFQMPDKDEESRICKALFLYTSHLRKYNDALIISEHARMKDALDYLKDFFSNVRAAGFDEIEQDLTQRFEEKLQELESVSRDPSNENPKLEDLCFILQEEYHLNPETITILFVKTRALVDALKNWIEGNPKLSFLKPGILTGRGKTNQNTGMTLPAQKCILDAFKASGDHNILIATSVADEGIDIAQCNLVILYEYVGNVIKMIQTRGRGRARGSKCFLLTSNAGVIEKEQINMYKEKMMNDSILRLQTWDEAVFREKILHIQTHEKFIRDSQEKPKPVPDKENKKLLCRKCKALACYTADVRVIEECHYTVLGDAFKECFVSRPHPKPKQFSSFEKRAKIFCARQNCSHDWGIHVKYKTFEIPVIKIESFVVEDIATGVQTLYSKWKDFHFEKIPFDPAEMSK
Experiment: RNA sequencing of RNA bound to RIG-I (RIG-I pulldown) after IR
Format: binding
Method: Technically, identification of RNAs was performed as follows: […] Cambridge, Mass.). Twenty-four hours post-transfection, cells were either mock-irradiated or exposed to IR (6 Gy). […] Cell lysates were separated from cell debris by centrifugation at 12,000 rpm at 4° C. Protein concentration was measured by BCA kit. Anti-FLAG monoclonal antibody was added to the cell lysate at a 1:500 dilution, and incubated overnight at 4° C. Protein G sepharose beads were added to the lysates and incubated for at least 2 hours at 4° C. […] Proteinase K was added to the eluates and incubated at 50° C. for 45 minutes. Trizol reagent was then added to the solution, and RNA bound to RIG-I was purified following manufacturer's protocol. RNA quality was analyzed using an Agilent Bioanalyzer 2100 with Pico Series II cartridges. RNA yield was measured using the Qubit RNA Broad Range kit. For qRT-PCR validation experiments of RIG-I pulled down RNA, UV cross-linking (2 doses at 150 mJ/cm^2) was performed on HEK293 and HCT116 overexpressing RIG-I prior to cell lysis. The same protocol for pulldown and RNA purification experiments was performed as described above. We eluted total RNA and RNA bound to RIG-I from RIG-I over-expressing HEK293 cells 48 hours post IR (6 Gy). […] Libraries were sequenced on Illumina HiSeq2500 instrument to generate 50 bp pair-ended reads. Sequencing files in FastQ format were processed using AlienTrimmer (Criscuolo A and Brisse S, 2013) to remove adapter sequences and to trim low quality reads with Phred quality score <20. The preprocessed reads were aligned to the human reference genome (Ensembl GRCh38) using Spliced Transcripts Alignment to a Reference (STAR) software (Dobin et al., 2013). The featureCounts tool from Bioconductor package RSubread was used to summarize and quantify the abundances of genomic features of the mapped reads (Liao et al., 2013). Mapped reads were annotated using human GENCODE version 20 (Harrow et al., 2012) and were summarized to 35 gene/transcript and non-coding RNA biotypes annotated in GENCODE/Ensemble databases. RepEnrich program (Criscione et al., 2014) was used to identify and quantify the repetitive elements. The program uses Bowtie (Langmead et al., 2009) to align the reads to the human reference genome (Ensembl GRCh38) and human repetitive element pseudogenomes built upon […] annotation library hg38.fa.out.gz (available at […].org on the World Wide Web). The mapped reads were summarized by repetitive element subfamilies, families and classes (Tables 3, 4 and 5). […]

[1] = Top 50 RIG-I binding RNAs, RepeatMasker annotations, RIG-I pulldown vs total RNA, HEK293, 48 h post IR (6 Gy)

U2: snRNA, SEQ ID NO:21
log2FC (All mapped reads identified using RepeatMasker): 5.983 | Mean log2FC (RepeatMasker annotations, mean of set 1 and set 2): 3.948 | log2FC (set 1) [1]: 5.983 | log2FC (set 2) [1]: 1.914

Source: patent publication US20170268001A1, “RNAS WITH TUMOR RADIO/CHEMO-SENSITIZING AND IMMUNOMODULATORY PROPERTIES AND METHODS OF THEIR PREPARATION AND APPLICATION” (THE UNIVERSITY OF CHICAGO, priority 2016, published 2017)
